In patent publication US12668589B2, “N-formamidopyrazoline derivative as P2X3 receptor antagonist and use thereof” (HANGZHOU WESTAN PHARMACEUTICAL TECHNOLOGY CO., LTD, priority 2020, dated 2026):

Target: T1, human P2X3 (Homo sapiens, UniProt P56373)
T1 sequence (P56373 1-397): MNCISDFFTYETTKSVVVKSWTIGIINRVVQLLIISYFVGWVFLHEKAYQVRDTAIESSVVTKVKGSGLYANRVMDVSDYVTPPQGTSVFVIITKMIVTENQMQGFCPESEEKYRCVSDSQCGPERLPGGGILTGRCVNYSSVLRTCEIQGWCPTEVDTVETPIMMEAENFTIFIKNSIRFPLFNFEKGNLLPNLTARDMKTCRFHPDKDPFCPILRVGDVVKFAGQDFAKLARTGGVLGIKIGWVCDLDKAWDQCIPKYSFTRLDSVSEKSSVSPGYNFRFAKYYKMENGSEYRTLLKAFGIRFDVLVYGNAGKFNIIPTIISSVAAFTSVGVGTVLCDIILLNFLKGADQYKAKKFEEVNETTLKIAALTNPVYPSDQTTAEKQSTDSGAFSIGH
Experiment: cell-based
Description: An HEK293 cell line was used as cells. HEK293 cells were placed in a 37° C. incubator with 5% CO2 for culture. Passage was conducted when the cells grew to a density of 80% to 90%. A culture medium in an original 60 mm culture dish was discarded. After the cells were washed 3 times with a sterilized PBS solution, and the solution was blotted up. […] After the trypsin was blotted up, 3 mL of a cell culture medium was added to resuspend the cells. 0.5 mL of a resuspension solution was taken to be added into a new culture dish, and an total culture solution was supplemented to 5 mL. The culture dish was gently shaken to distribute the cells evenly, and then placed in a 37° C. incubator with 5% CO2 for culture.
First, treated slides were spread in a small 35 mm culture dish. 100 μL of resuspended cells were added, and then a total amount of a culture medium was supplemented to 2 mL. Target genes were transferred into the HEK293 cell line by adopting a calcium transfection method. Small dishes to be transfected were subjected to medium change 1 hour before transfection. 2 mL of a fresh cell culture solution was added. A 1.5 mL EP tube was taken, 200 μL of a 0.25 M CaCl2) solution was added, and 3 μg of plasmids to be transfected were added, and even mixing was conducted to form a DNA-CaCl2 solution. […] A pipette tip was used for mixing while adding. After adding all, gentle blowing and beating were conducted 8 to 10 times. After still standing for 5 minutes, they were added into small dishes. The small dishes were shaken slightly to mix the solution evenly, and the placed in a cell incubator. Culture mediums were replaced after 8 to 10 hours. Electrophysiological experiments were performed 24 to 48 hours after transfection.
Electrophysiological recording electrodes were obtained by two-step pulling by using an electrode puller (PP-10, Narishige). After an internal solution is injected into the electrodes, a water inlet resistance is 3 to 5 MΩ. During the experiment, a high potassium salt internal solution containing nystatin (K2SO4 of 75 mM, KCl of 120 mM, MgSO4 of 5 mM, HEPES of 10 mM, adjusting pH to 7.2 with Tris-base, and used after filtration) was used as an electrode internal solution. After the cells were sealed by the electrodes, there was no need to further break cell membranes in a sucked manner, but the cell membranes were bored through the perforation of the nystatin to the cell membranes, to form a hole channel. […] A clamping voltage was −60 mV, a sampling frequency was 10 kHz, and filtering was conducted at 2 kHz.
A working concentration of a P2X3 receptor agonist ATP was 1 μM, and an interval time between two times of ATP administrations was 10 minutes.

SMILES: Cc1ccc(C2=NN(C(=O)N[C@H](C)c3cnc(C(F)(F)F)nc3)C[C@@H]2N2CCOCC2)cc1 [Compound 39, (S)-4-(morpholin-4-yl)-3-(4-methylphenyl)-N-((R)-1-(2-(trifluoromethyl)pyrimidin-5-yl)ethyl)-4,5-dihydro-1H-pyrazol-1-carboxamide]
- IC50: 6100 nM

SMILES: Cc1ccc(C2=NN(C(=O)N[C@H](C)c3cnc(C(F)(F)F)nc3)C[C@H]2N2CCOCC2=O)cc1 [Compound 3a, (R)-4-(3-oxomorpholin-4-yl)-3-(4-methylphenyl)-N-((R)-1-(2-(trifluoromethyl)pyrimidin-5-yl)ethyl)-4,5-dihydro-1H-pyrazol-1-carboxamide]
- IC50: 318 nM

SMILES: COc1ccc(C2=NN(C(=O)N[C@H](C)c3cnc(C(F)(F)F)nc3)C[C@@H]2N2CCOCC2=O)cc1 [Compound 36, (S)-4-(3-oxomorpholin-4-yl)-3-(4-methoxyphenyl)-N-((R)-1-(2-(trifluoromethyl)pyrimidin-5-yl)ethyl)-4,5-dihydro-1H-pyrazol-1-carboxamide]
- IC50: 283 nM

SMILES: COc1ccc([C@@H](C)NC(=O)N2C[C@H](N3CCOC3=O)C(c3ccc(Cl)cc3)=N2)nn1 [Compound 29, (S)-4-(2-oxooxazolidin-3-yl)-3-(4-chlorophenyl)-N-((R)-1-(6-(methoxy)pyridazin-3-yl)ethyl)-4,5-dihydro-1H-pyrazol-1-carboxamide]
- IC50: 152 nM

SMILES: C[C@@H](NC(=O)N1C[C@@H](N2CCOCC2=O)C(c2ccc(Cl)cc2)=N1)c1cnc(C(F)(F)F)nc1 [Compound 35a, (R)-4-(3-oxomorpholin-4-yl)-3-(4-chlorophenyl)-N-((R)-1-(2-(trifluoromethyl)pyrimidin-5-yl)ethyl)-4,5-dihydro-1H-pyrazol-1-carboxamide]
- IC50: 451 nM

SMILES: CC(=O)N1CCN([C@H]2CN(C(=O)N[C@H](C)c3ccc(C(F)(F)F)nc3)N=C2c2ccc(C)cc2)CC1 [Compound 19]
- IC50: 3860 nM

SMILES: Cc1ncc([C@@H](C)NC(=O)N2C[C@H](N3CCOC3=O)C(c3ccc(Cl)cc3)=N2)cn1 [Compound 43, (S)-4-(2-oxooxazolidin-3-yl)-3-(4-chlorophenyl)-N-((R)-1-(2-methylpyrimidin-5-yl)ethyl)-4,5-dihydro-1H-pyrazol-1-carboxamide]
- IC50: 331 nM

SMILES: Cc1ccc(C2=NN(C(=O)N[C@H](C)c3cnc(C)cn3)C[C@H]2N2CCOC2=O)cc1 [Compound 27a]
- IC50: 257 nM

SMILES: C[C@@H](NC(=O)N1C[C@@H](N2CCCC2=O)C(c2ccc(F)cc2)=N1)c1cnc(Cl)nc1 [Compound 44a, (R)-4-(2-oxopyrrolidin-1-yl)-3-(4-fluorophenyl)-N-((R)-1-(2-chloropyrimidin-5-yl)ethyl)-4,5-dihydro-1H-pyrazol-1-carboxamide]
- IC50: 421 nM

SMILES: CC(=O)N(C)[C@H]1CN(C(=O)N[C@H](C)c2cnc(C(F)(F)F)nc2)N=C1c1ccc(C)cc1 [Compound 34, (S)-4-(N-methylacetamido)-3-(4-methylphenyl)-N-((R)-1-(2-(trifluoromethyl)pyrimidin-5-yl)ethyl)-4,5-dihydro-1H-pyrazol-1-carboxamide]
- IC50: 169 nM

SMILES: Cc1ccc(C2=NN(C(=O)N[C@H](C)c3cnc(C(F)(F)F)nc3)C[C@@H]2N2CCOCC2=O)cc1 [Compound 3]
- IC50: 215 nM

SMILES: COc1ccc([C@@H](C)NC(=O)N2C[C@H](N3CCCC3=O)C(c3ccc(C)cc3)=N2)nc1 [Compound 9]
- IC50: 529 nM

SMILES: CC(=O)N(C)[C@@H]1CN(C(=O)N[C@H](C)c2ccc(Cl)nc2)N=C1c1ccc(C)cc1 [Compound 11a]
- IC50: 281 nM

SMILES: Cc1ccc(C2=NN(C(=O)N[C@H](C)c3ccc(C(F)(F)F)cn3)C[C@H]2N2CCCC2=O)cc1 [Compound 10a]
- IC50: 136 nM

SMILES: Cc1ccc(C2=NN(C(=O)N[C@H](C)c3ccc4c(c3)OCO4)C[C@@H]2N2CCCC2=O)cc1 [Compound 7, (S)-4-(2-oxopyrrolidin-1-yl)-3-(4-methylphenyl)-N-((R)-1-(3,4-(methylenedioxy)phenyl)ethyl)-4,5-dihydro-1H-pyrazol-1-carboxamide]
- IC50: 985 nM

SMILES: C[C@@H](NC(=O)N1C[C@H](N2CCCC2=O)C(c2ccc(F)cc2)=N1)c1cnc(Cl)nc1 [Compound 44, (S)-4-(2-oxopyrrolidin-1-yl)-3-(4-fluorophenyl)-N-((R)-1-(2-chloropyrimidin-5-yl)ethyl)-4,5-dihydro-1 H-pyrazol-1-carboxamide]
- IC50: 233 nM

SMILES: Cc1cnc([C@@H](C)NC(=O)N2C[C@@H](N3CCCC3=O)C(c3ccc(F)cc3)=N2)cn1 [Compound 28a, (R)-4-(2-oxopyrrolidin-1-yl)-3-(4-fluorophenyl)-N-((R)-1-(5-methylpyrazin-2-yl)ethyl)-4,5-dihydro-1H-pyrazol-1-carboxamide]
- IC50: 165 nM

SMILES: Cc1ccc(C2=NN(C(=O)N[C@H](C)c3cnc(C(F)(F)F)nc3)C[C@@H]2n2cccn2)cc1 [Compound 42]
- IC50: 4910 nM

SMILES: C[C@@H](NC(=O)N1C[C@@H](N2CCOCC2=O)C(c2ccc(F)cc2)=N1)c1ccc(C(F)(F)F)nc1 [Compound 24a]
- IC50: 145 nM

SMILES: Cc1ccc(C2=NN(C(=O)N[C@H](C)c3cnc(C(F)(F)F)nc3)C[C@@H]2N2CCN(C)CC2)cc1 [Compound 38]
- IC50: 2670 nM

SMILES: CC(=O)N(C)[C@@H]1CN(C(=O)N[C@H](C)c2ccc(C(F)(F)F)nc2)N=C1c1ccc(C)cc1 [Compound 25a]
- IC50: 112 nM

SMILES: COc1ccc(C2=NN(C(=O)N[C@H](C)c3cnc(C(F)(F)F)nc3)C[C@H]2N2CCOCC2=O)cc1 [Compound 36a, (R)-4-(3-oxomorpholin-4-yl)-3-(4-methoxyphenyl)-N-((R)-1-(2-(trifluoromethyl)pyrimidin-5-yl)ethyl)-4,5-dihydro-1H-pyrazol-1-carboxamide]
- IC50: 422 nM

SMILES: Cc1ccc(C2=NN(C(=O)N[C@H](C)c3cnc(C(F)(F)F)nc3)C[C@@H]2N2CCCC2=O)cc1 [Compound 32, (S)-4-(2-oxopyrrolidin-1-yl)-3-(4-methylphenyl)-N-((R)-1-(2-(trifluoromethyl)pyrimidin-5-yl)ethyl)-4,5-dihydro-1H-pyrazol-1-carboxamide]
- IC50: 127 nM

SMILES: C[C@@H](NC(=O)N1C[C@H](N2CCOCC2=O)C(c2ccc(F)cc2)=N1)c1cnc(C(F)(F)F)nc1 [Compound 33, (S)-4-(3-oxomorpholin-4-yl)-3-(4-fluorophenyl)-N-((R)-1-(2-(trifluoromethyl)pyrimidin-5-yl)ethyl)-4,5-dihydro-1H-pyrazol-1-carboxamide]
- IC50: 254 nM

SMILES: CC(=O)N(C)[C@@H]1CN(C(=O)N[C@H](C)c2ccc(C(F)(F)F)cc2)N=C1c1ccc(C)cc1 [Compound 5a, (R)-4-(N-methylacetamido)-3-(4-methylphenyl)-N-((R)-1-(4-(trifluoromethyl)phenyl)ethyl)-4,5-dihydro-1H-pyrazol-1-carboxamide]
- IC50: 353 nM

SMILES: COc1ccc([C@@H](C)NC(=O)N2C[C@@H](N3CCOC3=O)C(c3ccc(Cl)cc3)=N2)nn1 [Compound 29a, (R)-4-(2-oxooxazolidin-3-yl)-3-(4-chlorophenyl)-N-((R)-1-(6-(methoxy)pyridazin-3-yl)ethyl)-4,5-dihydro-1H-pyrazol-1-carboxamide]
- IC50: 105 nM

SMILES: Cc1ccc(C2=NN(C(=O)N[C@H](C)c3ccc(C(F)(F)F)nc3)C[C@@H]2N(C)C(=O)CN(C)C)cc1 [Compound 15, (S)-4-(2-(dimethylamino)-N-methylacetamido)-3-(4-methylphenyl)-N-((R)-1-(6-(trifluoromethyl)pyridin-3-yl)ethyl)-4,5-dihydro-1H-pyrazol-1-carboxamide]
- IC50: 2300 nM

SMILES: Cc1ccc(C2=NN(C(=O)N[C@H](C)c3cnc(F)c(F)c3)C[C@H]2N2CCOC2=O)cc1 [Compound 12a]
- IC50: 322 nM

SMILES: Cc1ccc(C2=NN(C(=O)N[C@H](C)c3ccc(OC(F)(F)F)nc3)C[C@@H]2N2CCCC2=O)cc1 [Compound 13]
- IC50: 257 nM

SMILES: Cc1ccc(C2=NN(C(=O)N[C@H](C)c3cnc(C(F)(F)F)cn3)C[C@H]2N2CCOCC2=O)cc1 [Compound 26a]
- IC50: 332 nM

SMILES: CC(=O)N1CCN([C@H]2CN(C(=O)N[C@H](C)c3cnc(C(F)(F)F)nc3)N=C2c2ccc(C)cc2)CC1 [Compound 37, (S)-4-(4-acetylpiperazin-1-yl)-3-(4-methylphenyl)-N-((R)-1-(2-(trifluoromethyl)pyrimidin-5-yl)ethyl)-4,5-dihydro-1H-pyrazol-1-carboxamide]
- IC50: 3730 nM

SMILES: COc1ccc([C@@H](C)NC(=O)N2C[C@H](N3CCOCC3)C(c3ccc(F)cc3)=N2)cn1 [Compound 14, (S)-4-(morpholin-4-yl)-3-(4-fluorophenyl)-N-((R)-1-(6-methoxypyridin-3-yl)ethyl)-4,5-dihydro-1H-pyrazol-1-carboxamide]
- IC50: 736 nM

SMILES: Cc1cnc([C@@H](C)NC(=O)N2C[C@H](N3CCCC3=O)C(c3ccc(F)cc3)=N2)cn1 [Compound 28, (S)-4-(2-oxopyrrolidin-1-yl)-3-(4-fluorophenyl)-N-((R)-1-(5-methylpyrazin-2-yl)ethyl)-4,5-dihydro-1H-pyrazol-1-carboxamide]
- IC50: 218 nM

SMILES: C[C@@H](NC(=O)N1C[C@@H](N2CCOCC2=O)C(c2ccc(F)cc2)=N1)c1cnc(C(F)(F)F)nc1 [Compound 33a, (R)-4-(3-oxomorpholin-4-yl)-3-(4-fluorophenyl)-N-((R)-1-(2-(trifluoromethyl)pyrimidin-5-yl)ethyl)-4,5-dihydro-1H-pyrazol-1-carboxamide]
- IC50: 365 nM

SMILES: CC(=O)N(C)[C@H]1CN(C(=O)N[C@H](C)c2ccc(C(F)(F)F)nc2)N=C1c1ccc(C)cc1 [Compound 25]
- IC50: 158 nM

SMILES: Cc1ccc(C2=NN(C(=O)N[C@H](C)c3ccc(OC(F)(F)F)nc3)C[C@H]2N2CCCC2=O)cc1 [Compound 13a]
- IC50: 329 nM

SMILES: CC(=O)N(C)[C@H]1CN(C(=O)N[C@H](C)c2ccc(C(F)(F)F)cc2)N=C1c1ccc(C)cc1 [Compound 5]
- IC50: 409 nM
